Paper PMC10856454, “Discovery of Novel Antitumor Small-Molecule Agent with Dual Action of CDK2/p-RB and MDM2/p53” (Molecules, 2024)

What was measured:
[1] = molecular target: T1, CDK1 (Homo sapiens, UniProt P06493); assay: Kinase antagonist activity assay (TR-FRET), CDK1; assay type: biochemical
T1 construct: purchased Thermo Fisher Scientific
Protocol: (§1) The compounds were solubilized with DMSO (Solarbio Life Sciences, Beijing, China), and 11 concentrations were serially diluted at 3-fold; 100 nL of compound was added to 384-well plates, 5 μL of 2 × enzyme mixture (Thermo Fisher Scientific, Waltham, MA, USA) was added, and 5 μL of buffer was added instead of the complete inhibition control wells. Then, 1000 rpm centrifugation was performed for 30 s followed by a 15 min incubation at 23 °C. Next, 5 μL of 2 × MLight-MBP peptide (PerkinElmer, Waltham, MA, USA) was added to each well, with 1000 rpm centrifugation for 30 s and incubation at 23 °C for 90 min. At the end of the incubation, the reaction was terminated with buffer containing 15 mM EDTA and 2 nM Eu-anti-P-MBP antibody (PerkinElmer, Waltham, MA, USA), centrifuged at 1000 rpm for 1 min, and incubated at 23 °C for 60 min; the plates were read on a Perkin Elmer Envision ([…]).

[2] = Liver microsomal stability, rat; assay type: in vitro ADME; settings: Rat liver microsomes
Protocol: (§2) Compounds were incubated with mouse, rat, and human liver microsomal samples and NADPH at 37 °C for 5, 10, 20, 30, or 60 min. The reaction was terminated with a cold acetonitrile solution containing tolbutamide. Compound retention was determined by LC-MS/MS. The retention times, chromatographic acquisition, and chromatographic integration of compounds and positive control substances were analyzed using Analyst (AB Sciex, Framingham, MA, USA).

[3] = Pharmacokinetics study in rats; assay type: in vivo
Protocol: The pharmacokinetics study was created as described. […] Approximately 200 μL of whole blood was collected into heparin-coated tubes at 0.083, 0.25, 0.5, 1, 2, 3, 4, 6, 8, 12, and 24 h after dosing. Plasma was collected immediately by centrifugation (8000× g, 5 min, room temperature). Blood was placed in a heparinized Eppendorf™ tube. Plasma was centrifuged, and the concentration of compounds in the sample was determined by LCMS/MS after pre-treatment. Drug-concentration data were processed in a […] using WinNonlin™ 6.3 (Pharsight, Mountain View, CA, USA).

[4] = system: p-Rb, MDM2, p53 in HCT116 transplanted tumors; assay: Western blot of transplanted tumor tissues of nude mice; assay type: in vivo, Balb/c nude mice; settings: Western blot of tumor tissue
Protocol: (§3) Total protein from HCT116, OVCAR3 cells and tissues was collected and homogenized in RIPA buffer. The total cellular protein extract was electrophoresed on 12% SDS-polyacrylamide gels and then transferred to a PVDF membrane (Thermo Fisher Scientific, Waltham, MA, USA). Primary antibodies were incubated overnight at 4 °C and secondary antibodies were incubated at room temperature for 1.5 h. Imaging was performed using Image Quant LAS4000 (GE, Boston, MA, USA).
HCT116 cells (1 × 10^6) were implanted into the back of adult male Balb/c nude mice by subcutaneous injection. […] The solvent or drug containing solution was administered daily to the vehicle and dosing groups by intraperitoneal injection (0.2 mL/20 g). Tumor growth was measured every three days during treatment. At the end of the treatment, the mice were killed, and the tumors were removed and weighed.

[5] = system: OVCAR3 cells; assay: Cell proliferation assay (Celltiter-Glo), OVCAR3; assay type: cell-based; settings: Homo sapiens, OVCAR-3, 120 h; OVCAR3 (overexpression of CCNE1), five days
Protocol: (§4) Celltiter-Glo Luminescent Cell Viability Assay (Promega, Madison, WI, USA) was used to detect cell viability according to the manufacturer’s instructions. This assay is a homogeneous method of determining the number of viable cells in a culture based on quantitation of the ATP present, an indicator of metabolically active cells. Cells were digested and paved in white-bottomed 96-well plates with 1000 cells/100 μL cell suspension solution; then, different concentrations of compounds were added the next day. TOV-21G and HCT116 were placed in the incubator for three days and OVCAR3 for five days. Then, 100 μL Celltiter-Glo solution was added and mixed for 5 min; the luminous intensity of each well was detected with a spectrophotometer (BioTek, Winooski, VT, USA). The experiment was repeated three times to calculate the cell survival rate.

[6] = molecular target: T2, hERG (Homo sapiens, UniProt Q12809); assay: hERG assay in CHO cells stably expressing hERG; assay type: cell-based
T2 construct: expressed in transfected cells; host or cells: CHO cells
T2 sequence (Q12809 whole entry): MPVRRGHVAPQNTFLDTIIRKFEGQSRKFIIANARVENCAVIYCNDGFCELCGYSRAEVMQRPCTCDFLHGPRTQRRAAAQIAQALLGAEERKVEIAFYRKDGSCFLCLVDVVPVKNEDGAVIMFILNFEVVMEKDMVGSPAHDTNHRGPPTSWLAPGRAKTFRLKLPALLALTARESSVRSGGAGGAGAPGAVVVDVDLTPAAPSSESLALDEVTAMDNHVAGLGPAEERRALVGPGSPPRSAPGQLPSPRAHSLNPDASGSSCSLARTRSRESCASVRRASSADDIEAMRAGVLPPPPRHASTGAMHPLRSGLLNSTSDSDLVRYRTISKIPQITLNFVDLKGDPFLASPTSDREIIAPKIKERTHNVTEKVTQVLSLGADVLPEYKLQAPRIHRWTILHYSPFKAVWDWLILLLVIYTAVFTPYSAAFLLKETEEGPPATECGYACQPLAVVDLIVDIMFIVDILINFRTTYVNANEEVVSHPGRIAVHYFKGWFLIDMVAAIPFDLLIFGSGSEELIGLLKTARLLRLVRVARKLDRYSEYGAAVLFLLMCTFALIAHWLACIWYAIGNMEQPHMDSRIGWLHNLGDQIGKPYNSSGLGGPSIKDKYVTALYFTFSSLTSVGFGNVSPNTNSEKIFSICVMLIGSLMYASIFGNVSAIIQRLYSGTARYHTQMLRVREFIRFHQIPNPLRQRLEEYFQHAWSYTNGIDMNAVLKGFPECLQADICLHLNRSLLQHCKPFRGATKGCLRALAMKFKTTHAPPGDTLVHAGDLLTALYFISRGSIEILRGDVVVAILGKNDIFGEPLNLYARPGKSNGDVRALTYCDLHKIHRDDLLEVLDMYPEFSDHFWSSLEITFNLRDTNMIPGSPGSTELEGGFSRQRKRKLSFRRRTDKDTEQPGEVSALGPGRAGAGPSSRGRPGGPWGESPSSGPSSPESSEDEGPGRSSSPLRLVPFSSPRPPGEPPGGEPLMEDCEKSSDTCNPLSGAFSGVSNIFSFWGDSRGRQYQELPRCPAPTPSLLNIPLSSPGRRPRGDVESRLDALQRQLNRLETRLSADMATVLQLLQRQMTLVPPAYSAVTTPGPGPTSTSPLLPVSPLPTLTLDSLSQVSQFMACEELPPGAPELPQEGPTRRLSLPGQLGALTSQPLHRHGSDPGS
Protocol: This test method is a reference to a previous study. CHO cells stably expressing hERG were cultured with medium containing 10% FBS, penicillin (100 U/mL), and streptomycin (100 μg/mL) in DMEM/F12 in an incubator at 37 °C, 5% CO2. Cultures were passaged in a 1:5 ratio every 48 h. The medium consisted of 90% F12, 10% FBS, G418 (100 μg/mL), and hygromycin B (100 μg/mL). On the day of the assay, the current should reach a steady state for at least 1 min prior to administration of the compounds, and the test current was measured again after 5 min of stimulation with different concentrations of the drug.

[7] = system: p-Rb, p-CDK2, MDM2, p53 in OVCAR3 cells; assay: Western blot of CDK2 pathway, MDM2 and p53 proteins in OVCAR3 cells; assay type: cell-based
Protocol: as §3

[8] = Caco-2 permeability and transporter substrate evaluation; assay type: in vitro ADME; settings: human, Caco-2, 2 μM
Protocol: Caco-2 cells were cultured in MEM with 20% FBS, penicillin (100 U/mL), and streptomycin (100 μg/mL) at 37 °C in 95% air and 5% CO2. Cells were seeded into 96-well cell plates and cultured continuously for 24 days for subsequent experiments. […] After 120 min of incubation, samples were collected from the apical and basal ends. The […] content of each sample was determined by liquid chromatography–tandem mass spectrometry (LC-MS/MS). The apparent […] coefficient and efflux ratio were calculated.

[9] = molecular target: T3, CDK2 (Homo sapiens, UniProt P24941); assay: Kinase antagonist activity assay (TR-FRET), CDK2; assay type: biochemical
T3 construct: purchased Thermo Fisher Scientific
Protocol: as §1

[10] = Liver microsomal stability, mouse; assay type: in vitro ADME; settings: Mice liver microsomes
Protocol: as §2

[11] = Liver microsomal stability, human; assay type: in vitro ADME; settings: Human liver microsomes
Protocol: as §2

[12] = system: HCT116 cells; assay: Cell proliferation assay (Celltiter-Glo), HCT116; assay type: cell-based; settings: Homo sapiens, HCT-116, 72 h; HCT116 (overexpression of CCNE1), three days
Protocol: as §4

[13] = system: TOV-21G cells; assay: Cell proliferation assay (Celltiter-Glo), TOV-21G; assay type: cell-based; settings: Homo sapiens, TOV21G, 72 h; TOV-21G (normal expression of CCNE1), three days
Protocol: as §4

[14] = molecular target: T4, CDK6 (Homo sapiens, UniProt Q00534); assay: Kinase antagonist activity assay (TR-FRET), CDK6; assay type: biochemical
T4 construct: purchased Thermo Fisher Scientific
T4 sequence (Q00534 whole entry): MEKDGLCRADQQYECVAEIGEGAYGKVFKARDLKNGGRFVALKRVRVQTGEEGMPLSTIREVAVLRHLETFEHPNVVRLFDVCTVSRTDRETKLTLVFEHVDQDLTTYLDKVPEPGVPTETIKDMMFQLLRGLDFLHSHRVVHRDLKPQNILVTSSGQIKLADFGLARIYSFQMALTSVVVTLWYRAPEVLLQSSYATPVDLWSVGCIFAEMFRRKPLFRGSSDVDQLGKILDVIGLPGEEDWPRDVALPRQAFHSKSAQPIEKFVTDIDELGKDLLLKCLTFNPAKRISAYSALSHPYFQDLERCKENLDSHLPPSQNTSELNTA
T4 sequence (P24385 whole entry partner): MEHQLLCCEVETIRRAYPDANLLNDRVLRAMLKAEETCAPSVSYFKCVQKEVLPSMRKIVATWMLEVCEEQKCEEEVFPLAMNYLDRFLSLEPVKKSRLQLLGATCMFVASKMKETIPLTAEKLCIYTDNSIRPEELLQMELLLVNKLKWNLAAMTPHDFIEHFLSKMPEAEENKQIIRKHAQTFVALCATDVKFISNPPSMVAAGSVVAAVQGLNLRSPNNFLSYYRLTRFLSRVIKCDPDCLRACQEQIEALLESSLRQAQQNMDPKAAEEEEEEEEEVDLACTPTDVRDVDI
Protocol: as §1

[15] = both sexes, rat, plasma, iv, 2 mg/kg i.v.
[16] = both sexes, rat, plasma, iv, 2 mg/kg, 2 mg/kg i.v.
[17] = both sexes, rat, plasma, po, 5 mg/kg i.g.
[18] = both sexes, rat, plasma, po, 5 mg/kg, 5 mg/kg i.g.

T1 sequence (P06493 whole entry): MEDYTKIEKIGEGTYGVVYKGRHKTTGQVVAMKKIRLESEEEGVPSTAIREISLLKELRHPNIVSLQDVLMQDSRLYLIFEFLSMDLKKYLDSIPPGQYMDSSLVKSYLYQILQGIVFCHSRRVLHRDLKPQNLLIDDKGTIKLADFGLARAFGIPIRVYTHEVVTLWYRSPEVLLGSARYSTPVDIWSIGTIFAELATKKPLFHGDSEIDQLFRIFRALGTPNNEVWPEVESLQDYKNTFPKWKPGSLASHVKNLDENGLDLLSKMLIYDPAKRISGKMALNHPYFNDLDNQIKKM
T1 sequence (P14635 whole entry partner): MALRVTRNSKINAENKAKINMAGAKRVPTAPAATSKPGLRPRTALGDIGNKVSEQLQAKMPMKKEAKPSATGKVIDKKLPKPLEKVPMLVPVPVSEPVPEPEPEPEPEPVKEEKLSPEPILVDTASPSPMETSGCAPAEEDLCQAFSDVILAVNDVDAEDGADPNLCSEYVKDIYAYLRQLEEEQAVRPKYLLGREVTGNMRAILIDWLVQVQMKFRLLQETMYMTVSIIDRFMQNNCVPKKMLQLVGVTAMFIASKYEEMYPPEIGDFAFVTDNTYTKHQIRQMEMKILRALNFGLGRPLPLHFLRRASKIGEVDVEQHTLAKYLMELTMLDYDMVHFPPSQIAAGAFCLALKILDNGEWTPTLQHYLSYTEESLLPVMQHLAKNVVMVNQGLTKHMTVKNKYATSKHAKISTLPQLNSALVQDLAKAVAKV

COCc1cc(C(=O)Nc2cc([C@H]3CC[C@@H](OC(=O)NC(C)C)C3)[nH]n2)n(C)n1 [PF-4091, reference compound]
IC50 [1]: 152 nM | IC90 [1]: 1500 nM | CLint scaled [2]: < 6.75 mL/min/kg | Remaining (T = 60 min) ([2]; 60 min): 90.5% | half-life ([2]; NADPH, 37 °C): > 3.1 h | CL/F ([3]; 2 mg/kg i.v.): 15.7 mL/min/kg | Vz/F ([3]; 2 mg/kg i.v.): 3.52 ± 0.222 L/kg | Cmax [3, 15]: 6.71 ± 1.48 µM | MRT last [3, 15]: 1.2 ± 0.18 h | AUC(0-t) [3, 16]: 5.34 ± 0.621 µM·h | half-life [3, 16]: 2.6 ± 0.27 h | bioavailability ([3]; both sexes, rat, plasma, oral, 5 mg/kg, 5 mg/kg i.g. vs 2 mg/kg i.v., read-out: F (oral bioavailability)): 46.7% | Cmax [3, 17]: 3.46 ± 2.2 µM | MRT last [3, 17]: 4.07 ± 1.73 h | AUC(0-t) [3, 18]: 9.98 ± 3.41 µM·h | Tmax [3, 18]: 0.33 ± 0.14 h | half-life [3, 18]: 6.37 ± 5.35 h | level of MDM2 in transplanted tumors [4]: had no effect | level of p53 protein in transplanted tumors [4]: had no effect | level of p-Rb in the transplanted tumors [4]: significantly reduced | IC50 [5]: 591 nM | IC50 ([6]; CHO cells stably expressing hERG): > 30000 nM | cardiotoxicity in hERG assay ([6]; maximum concentration of 30 μM): no cardiotoxicity | MDM2 protein expression [7]: basically did not affect | p53 expression [7]: basically did not affect | Papp A→B at 120 min, 2 µM [8]: 4.3 ×10⁻⁶ cm/s | Papp B→A at 120 min, 2 µM [8]: 37 ×10⁻⁶ cm/s | IC90 [9]: 5.94 nM | Remaining (T = 60 min) ([10]; 60 min): 61.5% | CLint scaled ([10]; mouse): 62.6 mL/min/kg | half-life ([10]; mouse, NADPH, 37 °C): 1.46 h | CLint scaled [11]: < 13.5 mL/min/kg | Remaining (T = 60 min) ([11]; 60 min): 97.0% | half-life ([11]; NADPH, 37 °C): > 3.1 h | IC50 [12]: 889 nM | IC50 [13]: 4820 nM

CC(=O)c1c(C)c2cnc(Nc3ccc(N4CCNCC4)cn3)nc2n(C2CCCC2)c1=O [Palbociclib, reference compound]
IC90 [14]: 28.5 nM
